From paper PMC10205807, “Cross-species comparison in nonclinical pharmacokinetics of lenvatinib by a simple HPLC with ultraviolet detection” (Scientific Reports, 2023)

How the values were obtained:
plasma protein [1] = assay: in vitro plasma protein binding, dogs; type: in vitro ADME
plasma protein [2] = assay: in vitro plasma protein binding, monkeys; type: in vitro ADME
[3] = PK study in rats (intravenous and oral); type: in vivo; settings: for Tmax: median (range)
Procedure: Sprague–Dawley male rats were purchased from Charles River Japan, Inc., and were used for the PK study after 8 days of an acclimatization period. Rats were 8 weeks old when lenvatinib was dosed and the body weight range was 0.28–0.31 (kg). Rats were fasted a day before the PK study and feeding was resumed 4 h postdose. Dosing solution of lenvatinib used in the rat PK study was the same as that in the mice PK study, and the dose levels were 3 mg/kg for the intravenous administration via femoral vein, and 3, 10, and 30 mg/kg for the oral administration by gastric gavage (n = 4/dose). Approximately 0.25 mL of blood samples were obtained from the jugular vein using heparinized syringes at predose, and at 5, 15 and 30 min, and 1, 2, 4, 6, 8, 12 and 24 h postdose. Plasma sample preparation and sample storage were the same as those in the mice PK study.
PK parameters of lenvatinib were estimated by model independent analysis using a WinNonlin program (Version 4.1, Pharsight Corporation, Mountain View, CA). The time to reach the maximum plasma concentration (Tmax) and the maximum plasma concentration (Cmax) values were obtained directly from the plasma concentration data. Terminal half-life (T1/2) was calculated by ln2/ke, where ke is the slope of the regression line that fits the portion of the terminal phase (at least three time points) in the log-linear concentration–time curve. AUC0–t and AUMC0–t, the area under the concentration–time curves and the area under the first moment curve, from time = zero to time = t, respectively, were calculated using the lenvatinib concentrations in plasma by the linear/log trapezoidal method. AUC0–inf was calculated by AUC0–t + Ct/ke, and AUMC0–inf was AUMC0–t + Ct × t/ke + Ct/(ke)^2, where Ct is the last measurable concentration at time = t. The plasma concentration at time zero for the intravenous dose was extrapolated, while zero was used for the oral doses. Mean residence time (MRT), total plasma clearance (CLtot) and the volume of distribution at steady state (Vdss) were calculated by AUMC0–inf/AUC0–inf, Dose/AUC0–inf and CLtot × MRT, respectively. Oral bioavailability (F) was estimated by comparing dose-normalized AUC0–inf after oral (AUC0–inf.po) and intravenous (AUC0–inf.iv) administration as follows: F (%) = (AUC0–inf.po/AUC0–inf.iv) × 100.

[4] = male, Sprague-Dawley, rat, plasma, intravenous 3 mg/kg
[5] = male, Sprague-Dawley, rat, plasma, oral 3 mg/kg
[6] = male, Sprague-Dawley, rat, plasma, oral 10 mg/kg
[7] = male, Sprague-Dawley, rat, plasma, oral 30 mg/kg

With `COc1cc2nccc(Oc3ccc(NC(=O)NC4CC4)c(Cl)c3)c2cc1C(N)=O` [lenvatinib, Lenvatinib] the fraction unbound at 0.3 μg/mL (plasma protein [1]; dog plasma, 0.3 μg/mL) was 0.084, the fraction unbound (plasma protein [1]; dog, plasma, dogs, 0.3–30 μg/mL, read-out: average fp (unbound fraction in plasma)) was 0.089 and the fraction unbound at 0.3 μg/mL (plasma protein [2]; monkey plasma, 0.3 μg/mL) was 0.039. The fraction unbound (plasma protein [2]; monkey, plasma, monkeys, 0.3–30 μg/mL, read-out: average fp (unbound fraction in plasma)) was 0.0394, the “CLint (hepatic intrinsic clearance)” value ([3]; estimated from oral PK, Fa and Fg assumed unity, BW 0.2 kg) was 1440 mL/h and the AUC(0-inf) [3, 4] was 30100 ± 1330 ng·h/mL. It also gave an MRT [3, 4] of 3.93 ± 0.19 h, a C0 ([3]; male, Sprague-Dawley, rat, plasma, intravenous 3 mg/kg, extrapolated) of 16000 ± 416 ng/mL and a clearance ([3]; male, Sprague-Dawley, rat, plasma, intravenous 3 mg/kg, read-out: CLtot (converted)) of 1.67 mL/min/kg. The Vd ([3]; male, Sprague-Dawley, rat, plasma, intravenous 3 mg/kg, read-out: Vdss) was 0.392 ± 0.0099 L/kg, the half-life ([3]; male, Sprague-Dawley, rat, plasma, iv, 3 mg/kg, intravenous 3 mg/kg) was 3.65 ± 0.09 h and the AUC(0-inf) [3, 5] was 20700 ± 3120 ng·h/mL. For the same compound, the Cmax [3, 5] was 6170 ± 1370 ng/mL, the MRT [3, 5] was 4.46 ± 0.16 h and the bioavailability ([3]; male, Sprague-Dawley, rat, plasma, oral 3 mg/kg vs intravenous 3 mg/kg, read-out: F (oral bioavailability)) was 68.7%. It also gave a Tmax [3, 5] of 0.5 h, an AUC(0-inf) [3, 6] of 78300 ± 6580 ng·h/mL and a Cmax [3, 6] of 16600 ± 1240 ng/mL. It also gave an MRT [3, 6] of 6.31 ± 0.53 h, a Tmax [3, 6] of 0.5 h and an AUC(0-inf) [3, 7] of 146000 ± 18500 ng·h/mL. For the same compound, the Cmax [3, 7] was 23200 ± 4770 ng/mL, the MRT [3, 7] was 6.86 ± 1.02 h and the Tmax [3, 7] was 1 h. For the same compound, the half-life ([3]; male, Sprague-Dawley, rat, plasma, po, 3 mg/kg, oral 3 mg/kg) was 3.61 ± 0.21 h, the half-life ([3]; male, Sprague-Dawley, rat, plasma, po, 10 mg/kg, oral 10 mg/kg) was 5.27 ± 0.33 h and the half-life ([3]; male, Sprague-Dawley, rat, plasma, po, 30 mg/kg, across 3, 10, and 30 mg/kg) was 3.61 to 5.27 h. For the same compound, the half-life ([3]; male, Sprague-Dawley, rat, plasma, po, 30 mg/kg, oral 30 mg/kg) was 4.95 ± 0.77 h.
